We go through 18 compounds from patent US20240043404A1 (AbbVie Inc., priority 2009, published 2024).

One experiment deals with RS4;11 cells. Kind of experiment: RS4;11 cell viability assay (CellTiter Glo).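 Note: acute lymphoblastic leukemia line RS4,11, EC50 derived from percentage of viable cells after treatment relative to untreated controls, cell killing taken as a measure of Bcl-2 inhibition.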 In kind it is cell-based, human. The note with it: Homo sapiens, RS4-11, 48 h, 50,000 cells per well, 10% human serum, 48 hours; read-out: RS4; 11 EC50 Values. On the technique in general: ATP-based viability assays read luminescence as a measure of living cells.
Procedure: The acute lymphoblastic leukemia (ALL) cell line RS4;11 was used as the primary human cell line to assess the cellular activity of Bcl-2 selective agents in vitro and their efficacy in vivo.
Cell cytotoxicity EC50 values were assessed using CellTiter Glo (Promega) according to the manufacturer's recommendations. The EC50 values were determined as a percentage of viable cells following treatment compared to the untreated control cells.
Turning to `CC1(C)CCC(CN2CCN(c3ccc(C(=O)NS(=O)(=O)c4ccc(OCC5(F)CCN(C6COC6)CC5)c(C#N)c4)c(Oc4cnc5[nH]ccc5c4)c3)CC2)=C(c2ccc(Cl)cc2)C1` [Example 357, 4-(4-{[2-(4-chlorophenyl)-4,4-dimethylcyclohex-1-en-1-yl]methyl}piperazin-1-yl)-N-[(3-cyano-4-{[4-fluoro-1-(oxetan-3-yl)piperidin-4-yl]methoxy}phenyl)sulfonyl]-2-(1H-pyrrolo[2,3-b]pyridin-5-yloxy)benzamide], the EC50 came to 13.2 nM. For the compound `O=C(NS(=O)(=O)c1cnc(OCC2(F)CCOCC2)c(Cl)c1)c1ccc(N2CCC(F)(Cc3ccccc3-c3ccc(Cl)cc3)CC2)cc1Oc1cnc2[nH]ccc2c1` [Example 272, 4-{4-[(4′-chlorobiphenyl-2-yl)methyl]-4-fluoropiperidin-1-yl}-N-({5-chloro-6-[(4-fluorotetrahydro-2H-pyran-4-yl)methoxy]pyridin-3-yl}sulfonyl)-2-(1H-pyrrolo[2,3-b]pyridin-5-yloxy)benzamide], the EC50 is 840 nM. Take `CC1(C)C=CC(c2ccc(Cl)cc2)=C(CN2CCN(c3ccc(C(=O)NS(=O)(=O)c4ccc(NCC5CCOCC5)c([N+](=O)[O-])c4)c(Oc4cnc5[nH]ccc5c4)c3)CC2)C1` [Example 206, 4-(4-{[2-(4-chlorophenyl)-5,5-dimethylcyclohexa-1,3-dien-1-yl]methyl}piperazin-1-yl)-N-({3-nitro-4-[(tetrahydro-2H-pyran-4-ylmethyl)amino]phenyl}sulfonyl)-2-(1H-pyrrolo[2,3-b]pyridin-5-yloxy)benzamide]: the EC50 is 52.9 nM.

Regarding `CC1(C)CCC(CN2CCN(c3ccc(C(=O)NS(=O)(=O)c4ccc(NCc5cccc(OC(F)F)c5)c([N+](=O)[O-])c4)c(Oc4cnc5[nH]ccc5c4)c3)CC2)=C(c2ccc(Cl)cc2)C1` [Example 187, 4-(4-{[2-(4-chlorophenyl)-4,4-dimethylcyclohex-1-en-1-yl]methyl}piperazin-1-yl)-N-[(4-{[3-(difluoromethoxy)benzyl]amino}-3-nitrophenyl)sulfonyl]-2-(1H-pyrrolo[2,3-b]pyridin-5-yloxy)benzamide], the EC50 is 215 nM. Regarding `CC1(C)CCC(CN2CCN(c3ccc(C(=O)NS(=O)(=O)c4ccc(OCC5CN(C6CC6)CCO5)c([N+](=O)[O-])c4)c(Oc4cnc5[nH]ccc5c4)c3)CC2)=C(c2ccc(Cl)cc2)C1` (stereo not shown) [Example 354, 4-(4-{[2-(4-chlorophenyl)-4,4-dimethylcyclohex-1-en-1-yl]methyl}piperazin-1-yl)-N-({4-[(4-cyclopropylmorpholin-2-yl)methoxy]-3-nitrophenyl}sulfonyl)-2-(1H-pyrrolo[2,3-b]pyridin-5-yloxy)benzamide], the EC50 came to 53.2 nM. On to `O=C(NS(=O)(=O)c1ccc(NCC2CCOCC2)c([N+](=O)[O-])c1)c1ccc(N2CCC(F)(Cc3ccccc3-c3ccc(Cl)cc3)CC2)cc1Oc1cnc2[nH]ccc2c1` [Example 271, 4-{4-[(4′-chlorobiphenyl-2-yl)methyl]-4-fluoropiperidin-1-yl}-N-({3-nitro-4-[(tetrahydro-2H-pyran-4-ylmethyl)amino]phenyl}sulfonyl)-2-(1H-pyrrolo[2,3-b]pyridin-5-yloxy)benzamide], for which the EC50 was 437 nM. `CC1(C)CCC(CN2CCN(c3ccc(C(=O)NS(=O)(=O)c4ccc(NC[C@@H]5CCCOC5)c([N+](=O)[O-])c4)c(Oc4cnc5[nH]ccc5c4)c3)CC2)=C(c2ccc(Cl)cc2)C1` [Example 11, 4-(4-{[2-(4-chlorophenyl)-4,4-dimethylcyclohex-1-en-1-yl]methyl}piperazin-1-yl)-N-[(3-nitro-4-{[(3S)-tetrahydro-2H-pyran-3-ylmethyl]amino}phenyl)sulfonyl]-2-(1H-pyrrolo[2,3-b]pyridin-5-yloxy)benzamide]: the EC50 was 13.9 nM. Same read-out and setting: the same measure for `CC(C)N1CCC(Nc2ccc(S(=O)(=O)NC(=O)c3ccc(N4CCN(CC5=C(c6ccc(Cl)cc6)CC(C)(C)CC5)CC4)cc3Oc3cnc4[nH]ccc4c3)cc2[N+](=O)[O-])CC1` [Example 226, 4-(4-{[2-(4-chlorophenyl)-4,4-dimethylcyclohex-1-en-1-yl]methyl}piperazin-1-yl)-N-({4-[(1-isopropylpiperidin-4-yl)amino]-3-nitrophenyl}sulfonyl)-2-(1H-pyrrolo[2,3-b]pyridin-5-yloxy)benzamide]: 118 nM; for `CC1(C)CCC(CN2CCN(c3ccc(C(=O)NS(=O)(=O)c4cnc(OCC5(F)CCOCC5)c(C(F)(F)F)c4)c(Oc4cnc5[nH]ccc5c4)c3)CC2)=C(c2ccc(Cl)cc2)C1` [Example 208, 4-(4-{[2-(4-chlorophenyl)-4,4-dimethylcyclohex-1-en-1-yl]methyl}piperazin-1-yl)-N-{[6-[(4-fluorotetrahydro-2H-pyran-4-yl)methoxy]-5-(trifluoromethyl)pyridin-3-yl]sulfonyl}-2-(1H-pyrrolo[2,3-b]pyridin-5-yloxy)benzamide]: 121 nM; for `CC1(C)CCC(CN2CCN(c3ccc(C(=O)NS(=O)(=O)c4ccc(NCC5CCC6(CC5)COC6)c([N+](=O)[O-])c4)c(Oc4cnc5[nH]ccc5c4)c3)CC2)=C(c2ccc(Cl)cc2)C1` [Example 365, 4-(4-{[2-(4-chlorophenyl)-4,4-dimethylcyclohex-1-en-1-yl]methyl}piperazin-1-yl)-N-({3-nitro-4-[(2-oxaspiro[3.5]non-7-ylmethyl)amino]phenyl}sulfonyl)-2-(1H-pyrrolo[2,3-b]pyridin-5-yloxy)benzamide]: 3.02 nM. `COCCOCCN1CC[C@@H](Nc2ccc(S(=O)(=O)NC(=O)c3ccc(N4CCN(CC5=C(c6ccc(Cl)cc6)CC(C)(C)CC5)CC4)cc3Oc3cnc4[nH]ccc4c3)cc2[N+](=O)[O-])C1` [Example 254, 4-(4-{[2-(4-chlorophenyl)-4,4-dimethylcyclohex-1-en-1-yl]methyl}piperazin-1-yl)-N-{[4-({(3R)-1-[2-(2-methoxyethoxy)ethyl]pyrrolidin-3-yl}amino)-3-nitrophenyl]sulfonyl}-2-(1H-pyrrolo[2,3-b]pyridin-5-yloxy)benzamide]: the EC50 turned out to be 19.9 nM. Take `CC1(C)CCC(CN2CCN(c3ccc(C(=O)NS(=O)(=O)c4ccc(NCC5COCCN5C5CCOCC5)c([N+](=O)[O-])c4)c(Oc4cnc5[nH]ccc5c4)c3)CC2)=C(c2ccc(Cl)cc2)C1` (stereo not shown) [Example 169, 4-(4-{[2-(4-chlorophenyl)-4,4-dimethylcyclohex-1-en-1-yl]methyl}piperazin-1-yl)-N-[(3-nitro-4-{[(4-tetrahydro-2H-pyran-4-ylmorpholin-3-yl)methyl]amino}phenyl)sulfonyl]-2-(1H-pyrrolo[2,3-b]pyridin-5-yloxy)benzamide]: the EC50 turned out to be 76.3 nM.

With `CN1CC(Nc2ccc(S(=O)(=O)NC(=O)c3ccc(N4CCN(CC5=C(c6ccc(Cl)cc6)CC(C)(C)CC5)CC4)cc3Oc3cnc4[nH]ccc4c3)cc2[N+](=O)[O-])CC1=O` (stereo not shown) [Example 202, 4-(4-{[2-(4-chlorophenyl)-4,4-dimethylcyclohex-1-en-1-yl]methyl}piperazin-1-yl)-N-({4-[(1-methyl-5-oxopyrrolidin-3-yl)amino]-3-nitrophenyl}sulfonyl)-2-(1H-pyrrolo[2,3-b]pyridin-5-yloxy)benzamide], the EC50 was found to be 43.8 nM. `CC1(C)CCC(CN2CCN(c3ccc(C(=O)NS(=O)(=O)c4cnc(NCC5(F)CCOCC5)c(Cl)c4)c(Oc4cnc5[nH]ccc5c4)c3)CC2)=C(c2ccc(Cl)cc2)C1` [Example 242, N-[(5-chloro-6-{[(4-fluorotetrahydro-2H-pyran-4-yl)methyl]amino}pyridin-3-yl)sulfonyl]-4-(4-{[2-(4-chlorophenyl)-4,4-dimethylcyclohex-1-en-1-yl]methyl}piperazin-1-yl)-2-(1H-pyrrolo[2,3-b]pyridin-5-yloxy)benzamide]: the EC50 was 223 nM. Still for that read-out and setting: the same measure for `CN(C)CC(=O)N1CCO[C@H](COc2ncc(S(=O)(=O)NC(=O)c3ccc(N4CCN(CC5=C(c6ccc(Cl)cc6)CC(C)(C)CC5)CC4)cc3Oc3cnc4[nH]ccc4c3)cc2Cl)C1` [Example 245, N-[(5-chloro-6-{[(2S)-4-(N,N-dimethylglycyl)morpholin-2-yl]methoxy}pyridin-3-yl)sulfonyl]-4-(4-{[2-(4-chlorophenyl)-4,4-dimethylcyclohex-1-en-1-yl]methyl}piperazin-1-yl)-2-(1H-pyrrolo[2,3-b]pyridin-5-yloxy)benzamide]: 83.6 nM; for `COCC1(C)CCC(c2ccc(Cl)cc2)=C(CN2CCN(c3ccc(C(=O)NS(=O)(=O)c4ccc(NCC5CCOCC5)c([N+](=O)[O-])c4)c(Oc4cnc5[nH]ccc5c4)c3)CC2)C1` (stereo not shown) [Example 360, 4-(4-{[2-(4-chlorophenyl)-5-(methoxymethyl)-5-methylcyclohex-1-en-1-yl]methyl}piperazin-1-yl)-N-({3-nitro-4-[(tetrahydro-2H-pyran-4-ylmethyl)amino]phenyl}sulfonyl)-2-(1H-pyrrolo[2,3-b]pyridin-5-yloxy)benzamide]: 9.9 nM.

Turning to `O=C(NS(=O)(=O)c1ccc(NCC2CCOCC2)c([N+](=O)[O-])c1)c1ccc(N2CCN(CC3=C(c4ccc(Cl)cc4)CCC(CF)(CF)C3)CC2)cc1Oc1cnc2[nH]ccc2c1` [Example 353, 4-(4-{[2-(4-chlorophenyl)-5,5-bis(fluoromethyl)cyclohex-1-en-1-yl]methyl}piperazin-1-yl)-N-({3-nitro-4-[(tetrahydro-2H-pyran-4-ylmethyl)amino]phenyl}sulfonyl)-2-(1H-pyrrolo[2,3-b]pyridin-5-yloxy)benzamide], the EC50 was 5.05 nM.

As to `CC1(C)CCC(CN2CCN(c3ccc(C(=O)NS(=O)(=O)c4ccc(OCC5CCCC(=O)C5)c([N+](=O)[O-])c4)c(Oc4cnc5[nH]ccc5c4)c3)CC2)=C(c2ccc(Cl)cc2)C1` (stereo not shown) [Example 205, 4-(4-{[2-(4-chlorophenyl)-4,4-dimethylcyclohex-1-en-1-yl]methyl}piperazin-1-yl)-N-({3-nitro-4-[(3-oxocyclohexyl)methoxy]phenyl}sulfonyl)-2-(1H-pyrrolo[2,3-b]pyridin-5-yloxy)benzamide], the EC50 came to 10.6 nM.

The experiment is the same for the next values; noted with them: Homo sapiens, RS4-11, Table 5, direct comparison Z=N with corresponding analogs Z=C; read-out: RS4; 11 EC50.
Consider `CC1(C)CCC(CN2CCN(c3ccc(C(=O)NS(=O)(=O)c4ccc(NC[C@@H]5CCCOC5)c([N+](=O)[O-])c4)c(Oc4cnc5[nH]ccc5c4)c3)CC2)=C(c2ccc(Cl)cc2)C1` [Example 11, 4-(4-{[2-(4-chlorophenyl)-4,4-dimethylcyclohex-1-en-1-yl]methyl}piperazin-1-yl)-N-[(3-nitro-4-{[(3S)-tetrahydro-2H-pyran-3-ylmethyl]amino}phenyl)sulfonyl]-2-(1H-pyrrolo[2,3-b]pyridin-5-yloxy)benzamide], for which the EC50 is 14 nM.
